We go through one compound from patent US20140243411A1 (priority 2011, published 2014).

Series [1] in a line: Physical-chemical characterization: viscosity and density. In kind it is physicochemical. How it is done: More than a dozen esters and amide derivatives of DTPA were synthesized. […] C2E5 is an oil with a viscosity of 163 cps at 25° C. […] The density of C2E5 was determined to be 1.119 g/mL. […] The intrinsic partition coefficient (log P) of C2E5 is difficult to measure due to its instability at high pH. Thus, the log D6.0 was determined by measuring the partitioning of C2E5 into octanol and water phases.
The solvent evaporation method was subsequently used to prepare the C2E5 non-aqueous gel formulations.

For series [2], the system named is rats contaminated with ^241Am. Put plainly: Radionuclide decorporation efficacy study in rats contaminated with 241Am (Example 10): excretion, tissue content, liver and skeleton burden. Format: in vivo, SD rats. How it is done:
All animal studies were conducted according to a protocol approved by the University of North Carolina at Chapel Hill Institutional Animal Care and Use Committee (IACUC). Ten-week-old adult female SD rats weighing from 200 to 300 g were used in these studies (Charles River Labs, Raleigh, N.C.). Food and water were given ad libitum. The animal room was kept at a controlled temperature (23° C.) and light cycle (light exposure from 8 AM to 8 PM). For the duration of the study, the rats were housed in metabolic cages individually with daily urine and feces collection until euthanasia on Day 7.
To evaluate the efficacy of transdermal delivery of the C2E5 nonaqueous gel, a radionuclide decorporation efficacy study was conducted in rats contaminated with ^241Am. Adult female SD rats were anesthetized with 2-3% isoflurane. Dorsal skin between the cervical vertebrae and anterior thoracic vertebrae was clipped with caution before all animals were contaminated with [^241Am]-Americium nitrate solution (250 nCi, 0.1 mL) via an i.m. injection in anterior thigh muscle. The C2E5 nonaqueous gel was applied at dose of 1000 mg/kg using a cotton swap to a 6 cm^2 (2 cm×3 cm) area of the clipped dorsal region immediately after contamination. A jacket with plastic dorsal insert (VWR International) was placed on the rat to protect the gel application region. The mass of C2E5 gel applied was recorded for each animal to permit the actual dose determination. The animals were housed in metabolic cages individually after C2E5 treatment and were euthanized 7 days after contamination. Positive and negative controls included animals administered Ca-DTPA intravenously and animals without any treatment. The animals were observed once daily and their body weights recorded at pre-dose and prior to necropsy, Urine and feces were collected daily until euthanasia, when the liver, kidneys, both femurs and the muscle tissue from around the injection site were also collected. Cage washes were collected at the end of each experiment. As ˜35% of the decay of ^241Am is associated with photon emissions of 59.7 keV, ^241Am present in samples was quantified using a gamma counter (2470 Wizard 2, Perkin Elmer). The samples were counted for one minute using a 40-80 keV energy detection window and were background-corrected. Additionally, ^241Am activity was quantified in 2×0.1 mL aliquots of the dosing solution. For all samples, ^241Am content was expressed as a percentage of the initial dose.
where % ID represents the percent of injected dose. Where data for both femurs were available, an estimate of the total skeletal burden was made using the method of Volf with modification in which the counts in the contra-lateral femur were multiplied by 19 and added to the counts in the ipsi-lateral femur. The modification for the literature method was due to higher ^241Am content in ipsi-lateral femur as a result of i.m. injection in anterior thigh muscle.
Statistically significant differences among groups were determined using one-way ANOVA with Tukey's post hoc comparison. All measurements are expressed as mean±standard deviation (S.D.). The level of significance was set at p<0.05.

For series [3] the following is noted: pH 7.4; Sueda et al.; cited from earlier work.
Series [4] can be described thus: Equilibrium solubility of C2E5 in aqueous media of varying pH. Format: physicochemical. As to conditions: aqueous buffer, thermodynamic from solid.
Where [5] appears, read: rats, seven days following a single dose, Ca-DTPA 14 mg/kg i.v., C2E5 1000 mg/kg transdermal.
Setting [6] is: seven days after single dose, Ca-DTPA 14 mg/kg i.v., C2E5 1000 mg/kg transdermal gel.
Setting [7] is: seven days, 1000 mg/kg transdermal.

Take `CCOC(=O)CN(CCN(CC(=O)OCC)CC(=O)OCC)CCN(CC(=O)OCC)CC(=O)OCC` [Formulation C2E5, penta-substituted ethyl ester of DTPA]: the density in series [1] was 1.119 g/mL. The same compound returned a viscosity in series [1] (25° C.) of 163 cps. For the same compound, the “Skeleton Burden (% of ID)” value in series [2] (contra-lateral femur × 19 + ipsi-lateral femur, rats, seven days following a single dose, Ca-DTPA 14 mg/kg i.v. (n = 3), C2E5 1000 mg/kg transdermal) is on record as 9.6 ± 0.9 % of ID. In addition, the “Ipsi-lateral femur content of 241Am” value in series [2] (rats, seven days following a single dose, Ca-DTPA 14 mg/kg i.v. (one animal excluded), C2E5 1000 mg/kg transdermal) was 0.54 ± 0.10 % of ID of ^241Am. Besides, in series [2] (setting [5]), the “% of Reduction over control (liver burden)” value is reported as 49.1%, the “% of Reduction over control (skeleton burden)” value stood at 41.1%, the “Contra-lateral femur content of 241Am” value was 0.48 ± 0.05 % of ID of ^241Am and the “Kidney content of 241Am” value is listed as 0.63 ± 0.07 % of ID of ^241Am. For the same compound, in series [2] (setting [5]), the “Liver Burden (% of ID)” value is recorded as 8.4 ± 2.0 % of ID, the “Liver content of 241Am” value is 8.4 ± 2.0 % of ID of ^241Am, the “Muscle-contra content of 241Am” value is recorded as 0.0078 ± 0.0017 % of ID of ^241Am per gram of muscle-contra and the “Muscle-ipsi content of 241Am” value is 44.3 ± 2.0 % of ID of ^241Am. In addition, in series [2] (setting [5]), the “Pelt at injection site content of 241Am” value is 0.84 ± 0.66 % of ID of ^241Am and the “Total decorporation (% of ID of 241Am)” value is listed as 26.2 ± 2.7 % of ID of ^241Am. In series [2] (seven days after single dose, Ca-DTPA 14 mg/kg i.v., C2E5 1000 mg/kg transdermal), the “reduction of liver burden of ^241Am versus control group” value was 49.1%. In addition, in series [2] (setting [6]), the “% of Enhanced decorporation over control” value worked out at 279.9%, the “Cumulative excretion of ^241Am In feces” value was 7.8 ± 1.2 % of ID, the “Cumulative excretion of ^241Am In urine” value was 18.4 ± 1.8 % of ID and the “Cumulative excretion of ^241Am Total” value is 26.2 ± 2.7 % of ID. In addition, in series [2] (setting [7]), the “^241Am burden in the ipsi-lateral femur versus no-treatment control” value is on record as “statistically significant reduction” and the “skeleton burden of ^241Am versus control group” value is “statistically significant reduction”. Moreover, in series [3], the “solubility of C2E5” value was 2200 µg/mL. The same compound returned a solubility (thermodynamic) in series [4] (pH 5.7, room temperature) of 20300 µg/mL. The compound also gave a thermodynamic solubility in series [4] (pH 7.1, room temperature) of 3000 µg/mL.
